Data from US5190937A, “Lactam derivatives” (Beecham Group p.l.c., priority 1990, dated 1993).
pIC50: −log10 of the molar value.

Target: T1, human lung fibroblast collagenase (Homo sapiens, UniProt P03956)
T1 construct: purified from culture supernatants from the human lung fibroblast cell line, WI-38; endogenous in cells; host or cells: WI-38 (human lung fibroblast cell line), culture supernatant, purified
T1 sequence (P03956 100-469): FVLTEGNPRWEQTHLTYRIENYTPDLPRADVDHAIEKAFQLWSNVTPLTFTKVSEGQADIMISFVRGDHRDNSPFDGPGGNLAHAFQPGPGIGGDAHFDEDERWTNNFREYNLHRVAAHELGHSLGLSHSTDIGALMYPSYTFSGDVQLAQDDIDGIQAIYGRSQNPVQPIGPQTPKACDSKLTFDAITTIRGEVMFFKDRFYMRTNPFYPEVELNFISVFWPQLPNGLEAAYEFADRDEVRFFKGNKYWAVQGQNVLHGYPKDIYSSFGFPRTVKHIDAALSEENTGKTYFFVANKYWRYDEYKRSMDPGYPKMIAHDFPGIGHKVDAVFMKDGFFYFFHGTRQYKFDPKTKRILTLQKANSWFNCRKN
Experiment: Collagenase inhibitor assay (degradation of 3H-acetylated rat skin type I collagen)
Type: biochemical
Conditions: collagenase purified from WI-38 culture supernatants; 3H-acetylated rat skin type I collagen substrate; 5 min pre-incubation, 37° C. overnight; β-mercaptoethanol may be incorporated; read-out: IC50 (50% inhibitory concentration), inhibition of human lung fibroblast collagenase
Protocol: The test is performed essentially as in Cawston and Barrett, Anal. Biochem. 99, 340-345 (1979). Compounds for testing are dissolved in methanol by sonication and added to collagenase (purified from culture supernatants from the human lung fibroblast cell line, WI-38) in buffer. To ensure that thiol collagenase inhibitors remain unoxidised, β-mercaptoethanol may be incorporated in the methanol solvent and/or the diluent buffers to give a final concentration of 9.6×10-^5 M. The minimal direct effect of β-mercaptoethanol on the degradation of collagen by human collagenase is controlled for. After a 5 min pre-incubation at 37° C., the assay tubes are cooled to 4° C. and ^3 H-acetylated rat skin type I collagen is added. The assay tubes are incubated at 37° C. overnight. The ^3 H-collagen forms insoluble fibrils, which are the substrate for the enzyme.
To terminate the assay, the assay tubes are spun at 12000 rpm for 15 min. Undigested ^3 H-collagen is pelleted, while digested ^3 H-collagen is found as soluble peptides in the supernatant. A sample of the supernatant is taken for liquid scintillation counting.
The activity of collagenase inhibitors (IC50 :50% inhibitory concentration) is expressed as that concentration of compound that inhibits a known (standard) concentration of enzyme by 50%.

Compound	pIC50
COC(=O)CC(S)C(CC(C)C)C(=O)NC1CCCCCCCCCCNC1=O (single isomer, unassigned) [Example E2A, 3-mercapto-6-methyl-4-[(2-oxoazacyclotridec-3-yl)aminocarbonyl]heptanoic acid, methyl ester]	8.57
CC(C)CC(C(=O)NC1CCCCCCCCCCNC1=O)C(S)CC(=O)O (single isomer, unassigned) [Example E3A, 3-Mercapto-6-methyl-4-[(2-oxoazacyclotridec-3-yl)aminocarbonyl]heptanoic acid]	7.13
CC(C)CC(C(=O)NC1CCCCCCCCCCNC1=O)C(S)CC(=O)OC(C)C (stereo not drawn) [Example E4A]	7.82
